From patent US11878995B2, “Oxysterols and methods of use thereof” (SAGE THERAPEUTICS, INC., priority 2016, dated 2024)

Molecular target: T1, GlunN1/GluN2A glutamate receptors (Homo sapiens, UniProt Q05586+Q12879)
T1 construct: expressed in transfected cells
Experiment: Whole-cell patch clamp of mammalian cells (Ionworks Barracuda), NMDA potentiation
Type: cell-based
Settings: 3 μM compound; HEK293 cells expressing human GRIN1/GRIN2A; co-application with EC20 L-glutamate and 30 μM glycine
Protocol: NMDA potentiation was assessed using either whole cell patch clamp of mammalian cells which expressed NMDA receptors.
Whole-Cell Patch Clamp of Mammalian Cells (Ionworks Barracuda (IWB))
The whole-cell patch-clamp technique was used to investigate the effects of compounds on GlunN1/GluN2A glutamate receptors expressed in mammalian cells.
HEK293 cells were transformed with adenovirus 5 DNA and transfected with cDNA encoding the human GRIN1/GRIN2A genes. Stable transfectants were selected using G418 and Zeocin-resistance genes incorporated into the expression plasmid and selection pressure maintained with G418 and Zeocin in the medium. Cells were cultured in Dulbecco's Modified Eagle Medium/Nutrient Mixture (D-MEM/F-12) supplemented with 10% fetal bovine serum, 100 μg/ml penicillin G sodium, 100 μg/ml streptomycin sulphate, 100 μg/ml Zeocin, 5 μg/ml blasticidin and 500 μg/ml G418.
Test article effects were evaluated in 8-point concentration-response format (4 replicate wells/concentration). […]
• a) Intracellular solution (mM): 50 mM CsCl, 90 mM CsF, 2 mM MgCl2, 5 mM EGTA, 10 mM HEPES. […] Cell suspension will be pipetted into the wells (9 μL per well) of the PPC planar electrode. • b) Whole-cell recording configuration will be established via patch perforation with membrane currents recorded by on-board patch clamp amplifiers. • c) Two recordings (scans) will be performed. […]

T1 sequence (Q12879 23-1464, other chains not shown): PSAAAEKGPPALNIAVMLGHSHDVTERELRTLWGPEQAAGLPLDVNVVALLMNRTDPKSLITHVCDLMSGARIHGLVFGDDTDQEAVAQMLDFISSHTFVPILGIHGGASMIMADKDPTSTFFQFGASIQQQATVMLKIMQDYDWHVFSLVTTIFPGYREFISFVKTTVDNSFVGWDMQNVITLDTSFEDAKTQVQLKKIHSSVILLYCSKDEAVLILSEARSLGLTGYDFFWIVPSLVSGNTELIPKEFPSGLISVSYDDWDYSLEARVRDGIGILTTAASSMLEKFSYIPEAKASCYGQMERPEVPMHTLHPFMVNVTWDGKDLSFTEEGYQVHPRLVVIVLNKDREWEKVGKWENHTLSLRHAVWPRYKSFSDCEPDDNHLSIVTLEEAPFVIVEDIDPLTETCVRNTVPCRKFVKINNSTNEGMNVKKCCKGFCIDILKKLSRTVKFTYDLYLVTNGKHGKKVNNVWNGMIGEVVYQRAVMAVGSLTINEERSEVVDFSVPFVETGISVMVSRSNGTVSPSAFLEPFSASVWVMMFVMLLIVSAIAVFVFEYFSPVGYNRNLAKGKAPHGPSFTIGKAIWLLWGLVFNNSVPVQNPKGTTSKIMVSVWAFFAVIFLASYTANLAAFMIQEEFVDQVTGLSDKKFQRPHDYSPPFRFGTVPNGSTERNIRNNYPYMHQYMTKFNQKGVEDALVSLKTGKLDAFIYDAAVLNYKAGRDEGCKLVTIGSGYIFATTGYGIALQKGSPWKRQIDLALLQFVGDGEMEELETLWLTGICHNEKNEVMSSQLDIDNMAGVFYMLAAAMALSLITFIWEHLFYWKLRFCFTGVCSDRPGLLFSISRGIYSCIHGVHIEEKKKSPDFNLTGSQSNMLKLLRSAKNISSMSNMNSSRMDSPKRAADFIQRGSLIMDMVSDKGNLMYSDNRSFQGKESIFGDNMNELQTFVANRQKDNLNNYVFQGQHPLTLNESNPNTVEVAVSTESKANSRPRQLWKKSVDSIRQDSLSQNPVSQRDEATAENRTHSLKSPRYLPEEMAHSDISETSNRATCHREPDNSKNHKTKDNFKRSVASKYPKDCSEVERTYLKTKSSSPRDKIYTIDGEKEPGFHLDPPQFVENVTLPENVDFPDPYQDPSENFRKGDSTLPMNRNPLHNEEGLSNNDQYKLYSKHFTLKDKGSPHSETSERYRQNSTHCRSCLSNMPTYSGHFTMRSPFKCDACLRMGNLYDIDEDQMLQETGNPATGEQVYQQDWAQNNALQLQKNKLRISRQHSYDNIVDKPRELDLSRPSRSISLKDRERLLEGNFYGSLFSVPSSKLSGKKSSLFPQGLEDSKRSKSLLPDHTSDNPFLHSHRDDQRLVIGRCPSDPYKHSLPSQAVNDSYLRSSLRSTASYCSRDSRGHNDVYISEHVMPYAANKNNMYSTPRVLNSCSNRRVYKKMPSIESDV

SMILES: [2H]C(O)(CC[C@@H](C)[C@H]1CC[C@H]2[C@@H]3CC=C4C[C@]([2H])(O)CC[C@]4(C)[C@H]3CC[C@]12C)C(C)C (stereo partly shown) [Compound 7]
- GluN2A PCA IWB Ephys % potentiation at 3 μM: C (“C” indicates potentiation of >150% to 225%)
